Assay results reported in US9296734B2 (AMGEN INC., priority 2013, dated 2016).
Like-named read-outs stand apart in the source and are kept apart here.

How the values were obtained:
Cathepsin D (Cat D) = Cathepsin D (Cat D) (Homo sapiens (Human), UniProt P07339); assay: In vitro enzymatic Cathepsin D (Cat D) FRET assay; assay type: biochemical; conditions: read-out: CatD IC50
Method in brief: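 CHO-expressed recombinant Cat D cleaves a fluorophore/quencher FRET peptide (20 nM) in 0.05 M citrate pH 3.5, 5 mM CHAPS, 10% DMSO final, over 1 h. Tris addition neutralizes pH to stop the reaction; fluorescence read at excitation 500 nm, emission 580 nm.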

[1] = tested on: Abeta 40 in CSF and brain; assay: In vivo inhibition of beta-secretase: Abeta 40 reduction in CSF and brain of the rat; conditions: 10 mpk (unless otherwise noted), after 4 hrs
Excerpt: In Vivo Inhibition of Beta-Secretase
Several animal models, including mouse, rat, dog, and monkey, may be used to screen for inhibition of beta-secretase activity in vivo following administration of a test compound sample. Animals used in this invention can be wild type, transgenic, or gene knockout animals. […] A separate group of animals receive 2% hydroxypropyl methylcellulose, 1% Tween80 alone, containing no test compound, and serve as a vehicle-control group. At the end of the test period, animals are sacrificed and brain tissues, plasma or cerebrospinal fluid are collected. […] Homogenates are centrifuged at 355,000 g, 4° C. for 30 minutes. CSF or brain supernatants are then analyzed for the presence of A-beta peptide by specific sandwich ELISA assays based on ECL (Electrochemiluminescence) technology. For example, rat Abeta40 is measured using biotinylated-4G8 (Signet) as a capture antibody and Fab40 (an in-house antibody specific to the C-terminal of Abeta40) as a detection antibody.
Actual vehicles used: Oral: 2% HPMC, 1% Tween80, pH 2.2

[2] = target: Beta Secretase enzyme (BACE) (Homo sapiens (Human), UniProt P56817); assay: In vitro enzymatic BACE FRET assay; assay type: biochemical; conditions: read-out: BACE 1 FRET assay IC50
Method in brief: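 Reactions ran in 0.05 M acetate pH 4.2 with 10% DMSO final and 100 uM genapol. They were started with 50 nM peptide FRET substrate (fluorophore and quencher flanking the BACE cleavage site) and incubated one hour. Tris addition raised the pH to neutral to stop the reaction before fluorescence reading.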

[3] = tested on: Aβ40 in conditioned medium of cells stably expressing Amyloid Precursor Protein (APP); assay: In vitro BACE cell-based assay (Aβ40 sandwich ELISA); conditions: Homo sapiens, read-out: HEK cell assay IC50
Method in brief: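 Secreted Aβ40 was quantified by sandwich ELISA (pAb40 capture, biotinylated 6E10 detection, Europium time-resolved fluorescence). IC50 derived from percent inhibition versus concentration.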

[4] = Abeta 40, rat CSF, read-out: % reduction of rat CSF levels at 10 pmk
[5] = Abeta 40, rat brain, read-out: % reduction of rat brain levels at 10 mpk
[6] = HEK293, average IC50, HEK cells
[7] = average IC50, cathepsin D enzyme assay
[8] = average IC50, BACE enzyme assay
[9] = HEK293, average IC50, HEK cell assay

Beta Secretase enzyme (BACE), sequence (P56817 46-501): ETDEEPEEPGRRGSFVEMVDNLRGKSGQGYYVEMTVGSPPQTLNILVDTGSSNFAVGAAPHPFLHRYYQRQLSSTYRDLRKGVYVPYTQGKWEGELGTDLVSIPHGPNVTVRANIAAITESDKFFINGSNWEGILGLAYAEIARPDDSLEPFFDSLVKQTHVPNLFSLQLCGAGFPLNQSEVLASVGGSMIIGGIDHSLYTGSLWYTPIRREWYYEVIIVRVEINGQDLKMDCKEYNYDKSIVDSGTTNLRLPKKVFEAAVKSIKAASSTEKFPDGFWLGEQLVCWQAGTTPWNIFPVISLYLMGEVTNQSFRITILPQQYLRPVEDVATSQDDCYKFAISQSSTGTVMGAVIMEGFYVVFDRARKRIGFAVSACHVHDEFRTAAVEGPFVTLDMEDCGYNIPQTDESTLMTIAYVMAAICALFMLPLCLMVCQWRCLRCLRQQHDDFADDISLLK
Cathepsin D (Cat D), sequence (P07339 65-412, species assumed): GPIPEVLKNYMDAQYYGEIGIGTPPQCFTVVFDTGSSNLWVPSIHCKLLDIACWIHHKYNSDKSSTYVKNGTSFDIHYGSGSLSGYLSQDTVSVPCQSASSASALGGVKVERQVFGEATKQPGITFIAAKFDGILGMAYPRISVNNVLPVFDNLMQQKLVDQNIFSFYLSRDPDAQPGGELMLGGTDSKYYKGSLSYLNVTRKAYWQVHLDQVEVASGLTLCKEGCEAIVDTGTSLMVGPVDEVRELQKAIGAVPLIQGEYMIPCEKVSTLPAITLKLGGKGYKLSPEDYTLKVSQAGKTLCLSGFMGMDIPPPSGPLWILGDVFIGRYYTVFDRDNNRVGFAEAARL

Row | Compound | IC50 (Cathepsin D (Cat D); average IC50) [µM] | inhibition in vivo at 10 mg/kg [1, 4] [%] | inhibition in vivo at 10 mg/kg [1, 5] [%] | IC50 ([2]; average IC50) [µM] | IC50 [3, 6] [µM] | IC50 (Cathepsin D (Cat D); [7]) [µM] | IC50 [2, 8] [µM] | IC50 [3, 9] [µM] | IC50 (Cathepsin D (Cat D); average) [µM]
1 | COc1cnc(C(=O)Nc2ccc(F)c([C@]3(CF)C[C@@H](C(F)(F)F)OC(N)=N3)c2)cn1 [Example 2, N-(3-((4S,6S)-2-amino-4-(fluoromethyl)-6-(trifluoromethyl)-5,6-dihydro-4H-1,3-oxazin-4-yl)-4-fluorophenyl)-5-methoxypyrazine-2-carboxamide] | > 400 | 70 | 61 | – | – | – | – | – | –
2 | NC1=N[C@](CF)(c2cc(NC(=O)c3ccc(Cl)cn3)ccc2F)C[C@@H](C(F)(F)F)O1 [Example 3, N-(3-((4S,6S)-2-amino-4-(fluoromethyl)-6-(trifluoromethyl)-5,6-dihydro-4H-1,3-oxazin-4-yl)-4-fluorophenyl)-5-chloropicolinamide] | > 400 | 72 | 58 | 0.018 | 0.032 | – | – | – | –
3 | NC1=N[C@](CF)(c2cc(Nc3cc(Cl)ccn3)ccc2F)C[C@@H](C(F)(F)F)O1 [Example 16, (4S,6S)-4-(5-((4-chloropyridin-2-yl)amino)-2-fluorophenyl)-4-(fluoromethyl)-6-(trifluoromethyl)-5,6-dihydro-4H-1,3-oxazin-2-amine] | – | 83 | 87 | – | – | 1630 | – | – | –
4 | N#Cc1cnc(C(=O)Nc2ccc(F)c([C@]3(CF)C[C@@H](C(F)(F)F)OC(N)=N3)c2)c(Cl)c1 [Example 32, N-(3-((4S,6S)-2-amino-4-(fluoromethyl)-6-(trifluoromethyl)-5,6-dihydro-4H-1,3-oxazin-4-yl)-4-fluorophenyl)-3-chloro-5-cyano-2-pyridinecarboxamide] | > 400 | 21 | -3 | 0.0285 | 0.0544 | – | – | – | –
5 | COc1cnc(C(=O)Nc2ccc(F)c([C@]3(CF)C[C@@H](C(F)(F)F)OC(N)=N3)c2)c(Cl)c1 [Example 50, N-(3-((4S,6S)-2-amino-4-(fluoromethyl)-6-(trifluoromethyl)-5,6-dihydro-4H-1,3-oxazin-4-yl)-4-fluorophenyl)-3-chloro-5-methoxypicolinamide] | > 400 | 50 | 22 | 0.0238 | 0.0265 | – | – | – | –
6 | Cc1cc(C#N)cnc1C(=O)Nc1ccc(F)c([C@]2(CF)C[C@@H](C(F)(F)F)OC(N)=N2)c1 [Example 51, N-(3-((4S,6S)-2-amino-4-(fluoromethyl)-6-(trifluoromethyl)-5,6-dihydro-4H-1,3-oxazin-4-yl)-4-fluorophenyl)-5-cyano-3-methylpicolinamide] | – | 68 | 59 | – | – | – | – | – | –
7 | NC1=N[C@](CF)(c2cc(NC(=O)c3ccc(Br)cn3)ccc2F)C[C@@H](C(F)(F)F)O1 [Example 52, N-(3-((4S,6S)-2-amino-4-(fluoromethyl)-6-(trifluoromethyl)-5,6-dihydro-4H-1,3-oxazin-4-yl)-4-fluorophenyl)-5-bromopicolinamide] | > 400 | 61 | 54 | – | – | – | – | – | –
8 | C[C@@]1(c2cc(NC(=O)c3ccc(Cl)cn3)cnc2F)C[C@@H](C(F)(F)F)OC(N)=N1 [Example 60, N-(5-((4S,6S)-2-amino-4-methyl-6-(trifluoromethyl)-5,6-dihydro-4H-1,3-oxazin-4-yl)-6-fluoropyridin-3-yl)-5-chloropicolinamide] | > 400 | 79 | 72 | 0.0528 | 0.0135 | – | – | – | –
9 | C[C@@]1(c2nc(NC(=O)c3ccc(C#N)cn3)ccc2F)C[C@@H](C(F)(F)F)OC(N)=N1 [Example 79, N-(6-((4S,6S)-2-amino-4-methyl-6-(trifluoromethyl)-5,6-dihydro-4H-1,3-oxazin-4-yl)-5-fluoropyridin-2-yl)-5-cyanopicolinamide] | > 400 | 83 | 79 | 0.0304 | 0.0115 | – | – | – | –
10 | NC1=N[C@](CF)(c2nc(NC(=O)c3nn(C(F)F)cc3Cl)ccc2F)C[C@@H](C(F)(F)F)O1 [Example 135, N-(6-((4S,6S)-2-amino-4-(fluoromethyl)-6-(trifluoromethyl)-5,6-dihydro-4H-1,3-oxazin-4-yl)-5-fluoropyridin-2-yl)-4-chloro-1-(difluoromethyl)-1H-pyrazole-3-carboxamide] | – | 64 | 55 | – | – | 1170 | 0.052 | 0.031 | –
11 | C#CCOc1cnc(C(=O)Nc2cc(F)c(F)c([C@]3(CF)C[C@@H](C(F)(F)F)OC(N)=N3)c2)cn1 [Example 154, N-(3-((4S,6S)-2-amino-4-(fluoromethyl)-6-(trifluoromethyl)-5,6-dihydro-4H-1,3-oxazin-4-yl)-4,5-difluorophenyl)-5-(prop-2-yn-1-yloxy)pyrazine-2-carboxamide] | – | 67 | 71 | – | – | > 400 | 0.0014 | 0.0096 | –
12 | CC#CCOc1cnc(C(=O)Nc2cc(F)c(F)c([C@]3(CF)C[C@@H](C(F)(F)F)OC(N)=N3)c2)cn1 [Example 155, N-(3-((4S,6S)-2-amino-4-(fluoromethyl)-6-(trifluoromethyl)-5,6-dihydro-4H-1,3-oxazin-4-yl)-4,5-difluorophenyl)-5-(but-2-yn-1-yloxy)pyrazine-2-carboxamide] | – | 26 | 11 | – | – | > 400 | 0.00087 | 0.00367 | –
13 | C[C@@]1(c2cc(NC(=O)c3ccc(Cl)cn3)cc(F)c2F)C[C@@H](C(F)(F)F)OC(N)=N1 [Example 164, N-(3-((4S,6S)-2-amino-4-methyl-6-(trifluoromethyl)-5,6-dihydro-4H-1,3-oxazin-4-yl)-4,5-difluorophenyl)-5-chloropicolinamide] | – | 77 | 75 | – | – | 1350 | 0.024 | 0.0052 | –
14 | COc1cnc(C(=O)Nc2cc(F)c(F)c([C@]3(C)C[C@@H](C(F)(F)F)OC(N)=N3)c2)cn1 [Example 165, N-(3-((4S,6S)-2-amino-4-methyl-6-(trifluoromethyl)-5,6-dihydro-4H-1,3-oxazin-4-yl)-4,5-difluorophenyl)-5-methoxypyrazine-2-carboxamide] | – | 75 | 76 | – | – | 5350 | 0.078 | 0.0098 | –
15 | C[C@@]1(c2cc(NC(=O)c3ncc(C#N)cc3Cl)cc(F)c2F)C[C@@H](C(F)(F)F)OC(N)=N1 [Example 167, N-(3-((4S,6S)-2-amino-4-methyl-6-(trifluoromethyl)-5,6-dihydro-4H-1,3-oxazin-4-yl)-4,5-difluorophenyl)-3-chloro-5-cyanopicolinamide] | – | 42 | 15 | – | – | 113 | – | – | –
16 | COc1cnc(C(=O)Nc2cc(F)c(F)c([C@]3(C)C[C@@H](C(F)(F)F)OC(N)=N3)c2)c(Cl)c1 [Example 169, N-(3-((4S,6S)-2-amino-4-methyl-6-(trifluoromethyl)-5,6-dihydro-4H-1,3-oxazin-4-yl)-4,5-difluorophenyl)-3-chloro-5-methoxypicolinamide] | – | 48 | 46 | – | – | > 400 | 0.037 | 0.0089 | –
17 | Cc1cc(C(F)F)cnc1C(=O)Nc1cc(F)c(F)c([C@]2(C)C[C@@H](C(F)(F)F)OC(N)=N2)c1 [Example 171, N-(3-((4S,6S)-2-amino-4-methyl-6-(trifluoromethyl)-5,6-dihydro-4H-1,3-oxazin-4-yl)-4,5-difluorophenyl)-5-(difluoromethyl)-3-methylpicolinamide] | – | 25 | 10 | – | – | 2060 | 0.043 | 0.017 | –
18 | COc1ccc(C(=O)Nc2cc(F)c(F)c([C@]3(C)C[C@@H](C(F)(F)F)OC(N)=N3)c2)nc1 [Example 201, N-(3-((4S,6S)-2-amino-4-methyl-6-(trifluoromethyl)-5,6-dihydro-4H-1,3-oxazin-4-yl)-4,5-difluorophenyl)-5-methoxypicolinamide] | – | 75 | 76 | – | – | – | – | – | 762
